Reference: patent US20100137313A1 (ASTRAZENECA AB, priority 2008, published 2010)

Target: S. pneumoniae Topoisomerase IV ATPase (ParE) (Streptococcus pneumoniae serotype 4, UniProt Q59961)
Assay: S. pneumoniae Topoisomerase IV ATPase inhibition
Type: biochemical
Details: values marked * are an average of two or more data points, read-out: % Inh (13 μM) of S. pneumoniae Topoisomerase IV ATPase
Procedure, shortened: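 Malachite green/ammonium molybdate phosphate detection, A650. 1.25 nM ParE, 160 μM ATP, sheared salmon sperm DNA 5 μg/ml, 20 mM Tris pH 8.0, 8.0 mM MgCl2. Controls: 2% DMSO = 0%, 20 μM EDTA = 100% inhibition; IC50 over 10 concentrations.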

Chain of S. pneumoniae Topoisomerase IV ATPase (ParE) (Q59961 whole entry): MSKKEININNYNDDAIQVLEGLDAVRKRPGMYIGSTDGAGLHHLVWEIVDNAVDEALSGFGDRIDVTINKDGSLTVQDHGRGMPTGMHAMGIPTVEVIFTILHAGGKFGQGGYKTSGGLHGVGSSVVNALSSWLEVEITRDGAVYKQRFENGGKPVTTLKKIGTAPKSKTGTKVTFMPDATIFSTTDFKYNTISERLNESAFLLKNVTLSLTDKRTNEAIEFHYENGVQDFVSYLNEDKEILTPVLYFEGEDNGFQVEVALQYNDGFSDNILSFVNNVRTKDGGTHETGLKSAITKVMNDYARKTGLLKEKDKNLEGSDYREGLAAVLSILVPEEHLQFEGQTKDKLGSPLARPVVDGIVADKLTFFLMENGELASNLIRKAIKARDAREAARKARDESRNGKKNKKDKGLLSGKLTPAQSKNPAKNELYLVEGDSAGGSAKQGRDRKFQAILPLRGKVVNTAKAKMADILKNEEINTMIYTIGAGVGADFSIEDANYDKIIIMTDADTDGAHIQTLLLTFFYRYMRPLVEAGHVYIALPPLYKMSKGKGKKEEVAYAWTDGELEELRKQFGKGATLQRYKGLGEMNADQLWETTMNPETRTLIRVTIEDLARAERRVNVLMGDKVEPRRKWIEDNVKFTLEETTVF

## CCOC(=O)c1cncc(-c2cnc(Nc3ccc(F)c(Cl)c3)nc2NCCN2CCS(=O)(=O)CC2)c1 [Example 104, 5-{2-(3-Chloro-4-fluoro-phenylamino)-4-[2-(1,1-dioxo-1λ^6-thiomorpholin-4-yl)-ethylamino]-pyrimidin-5-yl}-nicotinic acid ethyl ester]
  inhibition at 13 µM: 76.2%

## CCOC(=O)c1cncc(-c2cnc(Nc3ccc(F)c(Cl)c3)nc2NCCCN2CCS(=O)(=O)CC2)c1 [Example 105, 5-{2-(3-Chloro-4-fluoro-phenylamino)-4-[3-(1,1-dioxo-1λ^6-thiomorpholin-4-yl)-propylamino]-pyrimidin-5-yl}-nicotinic acid ethyl ester]
  inhibition at 13 µM: 79.2%

## CCOC(=O)c1cncc(-c2cnc(Nc3ccc(F)c(Cl)c3)nc2NCCCN2CCOCC2)c1 [Example 106, 5-[2-(3-Chloro-4-fluoro-phenylamino)-4-(3-morpholin-4-yl-propylamino)-pyrimidin-5-yl]-nicotinic acid ethyl ester]
  inhibition at 13 µM: 40.8%

## CCOC(=O)c1cncc(-c2cnc(Nc3ccc(F)c(Cl)c3)nc2NCC2CCCO2)c1 (stereo not drawn) [Example 108, ethyl 5-[2-[(3-chloro-4-fluorophenyl)amino]-4-(oxolan-2-ylmethylamino)pyrimidin-5-yl]pyridine-3-carboxylate]
  inhibition at 13 µM: -18.1%

## CCOC(=O)c1cncc(-c2cnc(Nc3ccc(F)c(Cl)c3)nc2NCCOC(C)C)c1 [Example 109, ethyl 5-[2-[(3-chloro-4-fluorophenyl)amino]-4-(2-propan-2-yloxyethylamino)pyrimidin-5-yl]pyridine-3-carboxylate]
  inhibition at 13 µM: 52.4%

## CCOC(=O)c1cncc(-c2cnc(Nc3ccc(F)c(Cl)c3)nc2NCc2ccco2)c1 [Example 110, ethyl 5-[2-[(3-chloro-4-fluorophenyl)amino]-4-(furan-2-ylmethylamino)pyrimidin-5-yl]pyridine-3-carboxylate]
  inhibition at 13 µM: 27.6%

## CCOC(=O)CNc1nc(Nc2ccc(F)c(Cl)c2)ncc1-c1cncc(C(=O)OCC)c1 [Example 111, ethyl 5-[2-[(3-chloro-4-fluorophenyl)amino]-4-[(2-ethoxy-2-oxoethyl)amino]pyrimidin-5-yl]pyridine-3-carboxylate]
  inhibition at 13 µM: -13.9%

## CCOC(=O)c1cncc(-c2cnc(Nc3ccc(F)c(Cl)c3)nc2NCCOc2ccccc2)c1 [Example 112]
  inhibition at 13 µM: 0.15%

## CCOC(=O)c1cncc(-c2cnc(Nc3ccc(F)c(Cl)c3)nc2N[C@H](C)C(=O)OC)c1 [Example 113, ethyl 5-[2-[(3-chloro-4-fluorophenyl)amino]-4-[[(2R)-1-methoxy-1-oxopropan-2-yl]amino]pyrimidin-5-yl]pyridine-3-carboxylate]
  inhibition at 13 µM: 34.3%

## CCOC(=O)c1cncc(-c2cnc(Nc3ccc(F)c(Cl)c3)nc2NCc2cnc(C)cn2)c1 [Example 115, ethyl 5-[2-[(3-chloro-4-fluorophenyl)amino]-4-[(5-methylpyrazin-2-yl)methylamino]pyrimidin-5-yl]pyridine-3-carboxylate]
  inhibition at 13 µM: 28.8%

## CCOC(=O)c1cncc(-c2cnc(Nc3ccc(F)c(Cl)c3)nc2NC(C)C)c1 [Example 116, ethyl 5-[2-[(3-chloro-4-fluorophenyl)amino]-4-(propan-2-ylamino)pyrimidin-5-yl]pyridine-3-carboxylate]
  inhibition at 13 µM: 82%

## CCOC(=O)c1cncc(-c2cnc(Nc3ccc(F)c(Cl)c3)nc2N2CCC(O)CC2)c1 [Example 117, ethyl 5-[2-[(3-chloro-4-fluorophenyl)amino]-4-(4-hydroxypiperidin-1-yl)pyrimidin-5-yl]pyridine-3-carboxylate]
  inhibition at 13 µM: 73.4%

## CCOC(=O)c1cncc(-c2cnc(Nc3ccc(F)c(Cl)c3)nc2N2CCCC(CO)C2)c1 (stereo not drawn) [Example 118, ethyl 5-[2-[(3-chloro-4-fluorophenyl)amino]-4-[3-(hydroxymethyl)piper-idin-1-yl]pyrimidin-5-yl]pyridine-3-carboxylate]
  inhibition at 13 µM: 80.6%

## CCOC(=O)c1cncc(-c2cnc(Nc3ccc(F)c(Cl)c3)nc2N2CCC(N3CCOCC3)CC2)c1 [Example 119, ethyl 5-[2-[(3-chloro-4-fluorophenyl)amino]-4-(4-morpholin-4-ylpiperidin-1-yl)pyrimidin-5-yl]pyridine-3-carboxylate]
  inhibition at 13 µM: 32%

## CCOC(=O)c1cncc(-c2cnc(Nc3ccc(F)c(Cl)c3)nc2N2CCC(C(=O)NC)CC2)c1 [Example 120, ethyl 5-[2-[(3-chloro-4-fluorophenyl)amino]-4-[4-(methylcarbamoyl)piper-idin-1-yl]pyrimidin-5-yl]pyridine-3-carboxylate]
  inhibition at 13 µM: 73.9%

## CCOC(=O)c1cncc(-c2cnc(Nc3ccc(F)c(Cl)c3)nc2N2CCC(F)CC2)c1 [Example 121, ethyl 5-[2-[(3-chloro-4-fluorophenyl)amino]-4-(4-fluoropiperidin-1-yl)pyrimidin-5-yl]pyridine-3-carboxylate]
  inhibition at 13 µM: 49.6%

## CCOC(=O)c1cncc(-c2cnc(Nc3ccc(F)c(Cl)c3)nc2N2CCC(OC)CC2)c1 [Example 122, ethyl 5-[2-[3-chloro-4-fluorophenyl)amino]-4-(4-methoxypiperidin-1-yl)pyrimidin-5-yl]pyridine-3-carboxylate]
  inhibition at 13 µM: 57.9%

## CCOC(=O)c1cncc(-c2cnc(Nc3ccc(F)c(Cl)c3)nc2N2CCC(O)C2)c1 (stereo not drawn) [Example 123, ethyl 5-[2-[(3-chloro-4-fluorophenyl)amino]-4-(3-hydroxypyrrolidin-1-yl)pyrimidin-5-yl]pyridine-3-carboxylate]
  inhibition at 13 µM: 66.4%

## CCOC(=O)c1cncc(-c2cnc(Nc3ccc(F)c(Cl)c3)nc2N2CCCC2C)c1 (stereo not drawn) [Example 124, ethyl 5-[2-[(3-chloro-4-fluorophenyl)amino]-4-(2-methylpyrrolidin-1-yl)pyrimidin-5-yl]pyridine-3-carboxylate]
  inhibition at 13 µM: 31.3%

## CCOC(=O)c1cncc(-c2cnc(Nc3ccc(F)c(Cl)c3)nc2N2C(C)CCC2C)c1 (stereo not drawn) [Example 125, ethyl 5-[2-[(3-chloro-4-fluorophenyl)amino]-4-(2,5-dimethylpyrrolidin-1-yl)pyrimidin-5-yl]pyridine-3-carboxylate]
  inhibition at 13 µM: 17.5%

## CCOC(=O)c1cncc(-c2cnc(Nc3ccc(F)c(Cl)c3)nc2N2CCC2)c1 [Example 126, ethyl 5-[4-(azetidin-1-yl)-2-[(3-chloro-4-fluorophenyl)amino]pyrimidin-5-yl]pyridine-3-carboxylate]
  inhibition at 13 µM: 35.7%

## CCOC(=O)c1cncc(-c2cnc(Nc3ccc(F)c(Cl)c3)nc2N2CCCCCC2)c1 [Example 127, ethyl 5-[4-(azepan-1-yl)-2-[(3-chloro-4-fluorophenyl)amino]pyrimidin-5-yl]pyridine-3-carboxylate]
  inhibition at 13 µM: 26.5%

## CCOC(=O)c1cncc(-c2cnc(Nc3ccc(F)c(Cl)c3)nc2N[C@H]2CC[C@H](O)CC2)c1 [Example 128, ethyl 5-[2-[(3-chloro-4-fluorophenyl)amino]-4-[(trans-4-hydroxycyclohexyl)amino]pyrimidin-5-yl]pyridine-3-carboxylate]
  inhibition at 13 µM: -16.2%

## CCOC(=O)c1cncc(-c2cnc(Nc3ccc(F)c(Cl)c3)nc2N2CCC(NC(C)=O)CC2)c1 [Example 129, ethyl 5-[4-(4-acetamidopiperidin-1-yl)-2-[(3-chloro-4-fluorophenyl)amino]pyrimidin-5-yl]pyridine-3-carboxylate]
  inhibition at 13 µM: 74.9%

## CCOC(=O)c1cncc(-c2cnc(Nc3ccc(F)c(Cl)c3)nc2N2CC(C)OC(C)C2)c1 (stereo not drawn) [Example 139, ethyl 5-(2-(3-chloro-4-fluorophenylamino)-4-(2,6-dimethylmorpholino)pyrimidin-5-yl)nicotinate]
  inhibition at 13 µM: 80.1%

## CCOC(=O)c1cncc(-c2cnc(Nc3ccc(F)c(Cl)c3)nc2NCCCc2nc3ccccc3[nH]2)c1 [Example 140, ethyl 5-(4-(3-(1H-benzo[d]imidazol-2-yl)propylamino)-2-(3-chloro-4-fluorophenylamino)pyrimidin-5-yl)nicotinate]
  inhibition at 13 µM: 83.5%

## CCOC(=O)c1cncc(-c2cnc(Nc3ccc(F)c(Cl)c3)nc2NCCCNC(=O)c2cnc(C)cn2)c1 [Example 141, ethyl 5-(2-(3-chloro-4-fluorophenylamino)-4-(3-(5-methylpyrazine-2-carboxamido)propyl-amino)pyrimidin-5-yl)nicotinate]
  inhibition at 13 µM: 63.3%

## CCOC(=O)c1cncc(-c2cnc(Nc3ccc(F)c(Cl)c3)nc2N2CCN(C(C)=O)CC2)c1 [Example 142, ethyl 5-(4-(4-acetylpiperazin-1-yl)-2-(3-chloro-4-fluorophenylamino)pyrimidin-5-yl)nicotinate]
  inhibition at 13 µM: 86.2%

## CCOC(=O)c1cncc(-c2cnc(Nc3ccc(F)c(Cl)c3)nc2NCCCOC)c1 [Example 143, ethyl 5-(2-(3-chloro-4-fluorophenylamino)-4-(3-methoxypropylamino)pyrimidin-5-yl)nicotinate]
  inhibition at 13 µM: 88.6%

## CCOC(=O)c1cncc(-c2cnc(Nc3ccc(F)c(Cl)c3)nc2N2CCOCC2)c1 [Example 144, ethyl 5-(2-(3-chloro-4-fluorophenylamino)-4-morpholinopyrimidin-5-yl)nicotinate]
  inhibition at 13 µM: 76.4%

## CCOC(=O)c1cncc(-c2cnc(Nc3ccc(F)c(Cl)c3)nc2NCc2cncn2C)c1 [Example 145, ethyl 5-(2-(3-chloro-4-fluorophenylamino)-4-((1-methyl-1H-imidazol-5-yl)methylamino)pyrimidin-5-yl) nicotinate]
  inhibition at 13 µM: 77.4%

## CCOC(=O)c1cncc(-c2cnc(Nc3ccc(F)c(Cl)c3)nc2N[C@@H]2CCOC2)c1 [Example 146, (R)-ethyl 5-(2-(3-chloro-4-fluorophenylamino)-4-(tetrahydrofuran-3-ylamino)pyrimidin-5-yl)nicotinate]
  inhibition at 13 µM: 79.7%

## CCOC(=O)c1cncc(-c2cnc(Nc3ccc(F)c(Cl)c3)nc2N2CCCC2)c1 [Example 147, ethyl 5-(2-(3-chloro-4-fluorophenylamino)-4-(pyrrolidin-1-yl)pyrimidin-5-yl)nicotinate]
  inhibition at 13 µM: 65.4%
